# From patent US3991210A, “Acetamidine urinary antiseptics” (The Dow Chemical Company, priority 1975, dated 1976)
# Structures can show the parent of a compound that is named as a salt.
# Assays:
# [1] = tested on: Proteus species, either Proteus vulgaris or Proteus mirabilis; assay: Antimicrobial activity of urine collected from mice after oral dosing, against a Proteus species (Example 1); type: in vivo, Proteus vulgaris or Proteus mirabilis (urine from mice); conditions: for antimicrobial activity of urine against Proteus: 60 mg/kg, similar operations; for antimicrobial activity of urine against Proteus species: oral, 50 mg/kg, urine collected 1 to 24 hours
# Protocol: (§1) Separate groups of mice are fasted overnight, but are provided with water ad libitum prior to oral administration of a substituted amidine test compound. […] Urine is collected in sterile containers at intervals over the period from 1 to 24 hours after administration of the test compound. The collected urine is assayed for antimicrobial activity against Escherichia coli, Pseudomonas aeruginosa and a Proteus species, either Proteus vulgaris or Proteus mirabilis. Urine samples collected from the separate groups of mice administered one of 2-(4-chlorophenyl)acetamidine hydrochloride, 2-(4-bromophenyl)-acetamidinehydrochloride, 2-(4-chlorophenyl)acetamidoxime hydrochloride and 2-(4-bromophenyl)acetamidoxime hydrochloride are found to be active against all three test organisms.
# [2] = tested on: Escherichia coli; assay: Antimicrobial activity of urine collected from mice after oral dosing, against Escherichia coli; type: in vivo; conditions: for urinary antiseptic activity, EC: single oral dose 56.2 mg/kg; as to urinary antiseptic activity, EC: key: +: urinary antiseptic activity and inhibition of microbial growth being observed; O: no urinary antiseptic activity and no inhibition of microbial growth are observed
# Protocol: as §1
# (§2) The procedure of Example 1 is repeated, employing the substituted amidine compound 2-(4-bromophenyl)-acetamidine hydrochloride, and the known antiseptics gentamicin and nalidixic acid as test compounds. […]
# [3] = tested on: Pseudomonas aeruginosa; assay: Antimicrobial activity of urine collected from mice after oral dosing, against Pseudomonas aeruginosa; type: in vivo; conditions: for antimicrobial activity of urine against Pseudomonas: 60 mg/kg, similar operations; for antimicrobial activity of urine against Pseudomonas aeruginosa: oral, 50 mg/kg, urine collected 1 to 24 hours; for urinary antiseptic activity, PA: single oral dose 56.2 mg/kg; as to urinary antiseptic activity, PA: key: +: urinary antiseptic activity and inhibition of microbial growth being observed; O: no urinary antiseptic activity and no inhibition of microbial growth are observed
# Protocol: as §1, §2
# [4] = tested on: Proteus vulgaris; assay: Antimicrobial activity of urine collected from mice after oral dosing, against Proteus vulgaris (Example 2); type: in vivo; conditions: single oral dose 56.2 mg/kg; also: key: +: urinary antiseptic activity and inhibition of microbial growth being observed; O: no urinary antiseptic activity and no inhibition of microbial growth are observed
# Protocol: Separate groups of mice are fasted overnight, but are provided with water ad libitum prior to oral administration of a substituted amidine test compound. The test compounds are administered orally at a dosage rate of 50 milligrams of test compound per kilogram of animal body weight in an aqueous carrier. Urine is collected in sterile containers at intervals over the period from 1 to 24 hours after administration of the test compound. The collected urine is assayed for antimicrobial activity against Escherichia coli, Pseudomonas aeruginosa and a Proteus species, either Proteus vulgaris or Proteus mirabilis. Urine samples collected from the separate groups of mice administered one of 2-(4-chlorophenyl)acetamidine hydrochloride, 2-(4-bromophenyl)-acetamidinehydrochloride, 2-(4-chlorophenyl)acetamidoxime hydrochloride and 2-(4-bromophenyl)acetamidoxime hydrochloride are found to be active against all three test organisms.
# The procedure of Example 1 is repeated, employing the substituted amidine compound 2-(4-bromophenyl)-acetamidine hydrochloride, and the known antiseptics gentamicin and nalidixic acid as test compounds. Each test compound is administered in a single oral dose of 56.2 milligrams per kilogram; and separate urine samples are separately collected and assayed at intervals of 1, 4 and 24 hours after administration.
# [5] = Acute oral lethality (LD50) in mice; conditions: mouse, in vivo, mice, per os, 24 hours, read-out: LD50 (dosage lethal to 50 percent of the mice)
# Protocol: Separate groups of mice are separately administered an aqueous composition containing 2-(4-bromophenyl)acetamidine hydrochloride. The compound is administered per os at various dosage rates, and the animals are held for 24 hours, after which deaths are recorded, and the LD50 (dosage lethal to 50 percent of the mice) is determined.
# [6] = Standard pharmacological evaluation procedures in mice; type: in vivo; conditions: 60 mg/kg
# Protocol: In other operations, 2-(4-bromophenyl)acetamidine hydrochloride is administered to mice at a dosage rate of 60 milligrams per kilogram in a series of standard pharmacological evaluation procedures.
# [7] = tested on: Proteus mirabilis; assay: Proteus mirabilis urinary tract infection in Holtzman rats (Example 5); type: in vivo; conditions: PO
# Excerpt: (§3) Several groups of Wistar rats are surgically prepared and given a urinary tract infection by injection into the lumen of the bladder of 0.1 milliliter of a brain-heart infusion broth culture of Proteus mirabilis, in a procedure similar to that of Miraglia, Transact. N.Y. Acad. Sc. 32, 337 (1970). One group is similarly prepared surgically, but is not infected with the test organism, providing an operated, non-infected control group. Three hours after the surgical operations are complete, the animals in three of the groups (the test groups) are orally administered 100 milligrams per kilogram of nalidixic acid, or 2-(4-bromophenyl)acetamidine hydrochloride at a dosage rate of 50 or 100 milligrams per kilogram. A fourth group is not administered any test compound to serve as an infected control group.
# (§4) The animals in each group are weighed daily and the test compounds are administered to the test groups daily at the same dosage rate for a total of 14 days. At the end of the 14 day test period, the animals are sacrificed. Swabs of the kidney pelvis and samples of bladder urine are obtained and examined by bacteriological culture techniques, and pathological examinations are carried out.
# The operations of Example 4 are repeated using six Holtzman rats per group and using nitrofurantoin instead of nalidixic acid.
# [8] = tested on: Proteus mirabilis; assay: Proteus mirabilis urinary tract infection in Wistar rats, 14 days treatment (Example 4); type: in vivo; conditions: infected Wistar rats, oral
# Excerpt: as §3, §4
# [9] = tested on: Proteus mirabilis; assay: Proteus mirabilis urinary tract infection in rats, bacterial count per kidney (Example 6); type: in vivo; conditions: oral, three doses at 4, 28, 52 hours, 72 hours
# Protocol: In a similar operation, a Proteus mirabilis urinary tract infection was established in rats using a similar surgical technique. In separate groups, the test compound 2-(4-bromophenyl)acetamidine p-toluene-sulfonate, or the reference compound nalidixic acid, were administered orally in three doses, 4, 28 and 52 hours after completion of the surgical technique used to establish the infection. Separate groups of rats were left untreated to serve as controls. After 72 hours, the animals were euthanized with carbon dioxide. The left kidney was removed, homogenized in 9 milliliters sterile saline solution, and fivefold dilutions of the resulting brei were made in brain-heart infusion broth. Bacterial counts in the dilutions were determined after 24 hours incubation at 37° C. The oral dose in milligrams per kilogram (mg/kg); millimoles per kilogram (mM); the number of animals in each group, and the base ten logarithm (Log10) of the bacterial count (number of organisms per kidney) are set out below.
# [10] = oral, 50 mg/kg, urine collected 1 to 24 hours
# [11] = 50 or 100 mg/kg per day, 14 days
compound,measurement,setting,value
"NC(Cc1ccccc1)=NO [2-phenylacetamidioxime hydrochloride, reference compound]",antimicrobial activity of urine against Proteus,[1],ineffective
same,antimicrobial activity of urine against E. coli,"[2]; 60 mg/kg, similar operations",ineffective
same,antimicrobial activity of urine against Pseudomonas,[3],ineffective
gentamicin,"urinary antiseptic activity, PV",[4]; urine at 1 hour,+
same,"urinary antiseptic activity, PV",[4]; urine at 4 hours,+
same,"urinary antiseptic activity, EC",[2]; urine at 1 hour,+
"NC(Cc1ccc(Cl)cc1Cl)=NO [2-(2,4-dichlorophenylacetamidoxime hydrochloride, reference compound]",antimicrobial activity of urine against Proteus,[1],ineffective
same,antimicrobial activity of urine against E. coli,"[2]; 60 mg/kg, similar operations",ineffective
same,antimicrobial activity of urine against Pseudomonas,[3],ineffective
Cl.N=C(N)Cc1ccc(Br)cc1 [2-(4-bromophenyl)acetamidine hydrochloride],LD50 at 24 h,[5],562 mg/kg
same,antimicrobial activity of urine against Proteus species,[1],active
same,analgesic activity,[6],no significant
same,anorectic activity,[6],no significant
same,anti-thrombotic activity,[6],some anti-thrombotic activity
same,antidepressant activity,[6],no significant
same,hypotensive activity,[6],no significant
same,sedative activity,[6],no significant
same,Percent Infection (percent of surviving rats with Proteus infection of any degree),[7]; 50 mg/kg,60.0%
same,Percent Pathology (percent total pathology signs observed over total possible observations times 100),[7]; 50 mg/kg,13.6%
same,Percent Weight Gain,[7]; 50 mg/kg,16.6%
same,Percent Infection (percent of surviving rats with Proteus infection of any degree),[7]; 100 mg/kg,20.0%
same,Percent Pathology (percent total pathology signs observed over total possible observations times 100),[7]; 100 mg/kg,12.7%
same,Percent Weight Gain,[7]; 100 mg/kg,19.2%
same,"urinary antiseptic activity, PV",[4]; urine at 1 hour,+
same,"urinary antiseptic activity, PV",[4]; urine at 4 hours,+
same,antimicrobial activity of urine against E. coli,[2]; [10],active
same,"urinary antiseptic activity, EC",[2]; urine at 1 hour,+
same,"urinary antiseptic activity, EC",[2]; urine at 4 hours,+
same,"urinary antiseptic activity, EC",[2]; urine at 24 hours,+
same,antimicrobial activity of urine against Pseudomonas aeruginosa,[3],active
same,"urinary antiseptic activity, PA",[3]; urine at 1 hour,+
same,"urinary antiseptic activity, PA",[3]; urine at 4 hours,+
same,weight gain rate,"[8]; 50 mg/kg per day, 14 days",normal in all but one of the rats
same,weight gain rate after the tenth day,"[8]; 50 mg/kg per day, after the tenth day",normal for all the rats in this group after the tenth day
same,weight gain rate,"[8]; 100 mg/kg per day, 2-(4-bromophenyl)-acetamidine hydrochloride group",approximately mormal in all but two of the rats
same,weight gain after the sixth day,"[8]; 100 mg/kg per day, after the sixth day",normal weight gain is observed with all but one of the test animals
same,gross pathological changes attributable to the infection,[8]; [11],No gross pathological changes attributable to the infection
same,infecting Proteus organism in swab and urine cultures,[8]; [11],no evidence of the infecting Proteus organism
same,bacteriological culture of swabs and urine,"[8]; 50 or 100 mg/kg per day, 14 days, except slight E. coli growth in one rat",bacteriologically sterile
same,growth of E. coli in urine and kidney swab cultures,"[8]; 50 or 100 mg/kg per day, one of the rats, attributed to contamination during autopsy",slight growth of E. coli noted in the urine and one of the kidney swabs from one of the rats
"CCn1cc(C(=O)O)c(=O)c2ccc(C)nc21 [Nalidixic acid, nalidixic acid, reference compound]","urinary antiseptic activity, PV",[4]; urine at 1 hour,+
same,"urinary antiseptic activity, PV",[4]; urine at 4 hours,+
same,"urinary antiseptic activity, EC",[2]; urine at 1 hour,+
same,"urinary antiseptic activity, EC",[2]; urine at 4 hours,+
same,"urinary antiseptic activity, PA",[3]; urine at 4 hours,+
same,bacteriological culture of kidney pelvis swabs and bladder urine,"[8]; 100 mg/kg per day, 14 days",bacteriologically sterile
same,gross pathology attributable to the infection,"[8]; 100 mg/kg per day, 14 days",No gross pathology attributable to the infection
same,weight gain,"[8]; 100 mg/kg per day, 14 days",gain weight normally
same,Mean Bacterial Count (number of organisms per kidney),[9]; 50 mg/kg,3.20 Log10
same,Mean Bacterial Count (number of organisms per kidney),[9]; 100 mg/kg,2.56 Log10
"O=C1CN(/N=C/c2ccc([N+](=O)[O-])o2)C(=O)N1 [Nitrofurantoin, nitrofurantoin, reference compound]",Percent Infection (percent of surviving rats with Proteus infection of any degree),[7]; 100 mg/kg,33.0%
same,Percent Pathology (percent total pathology signs observed over total possible observations times 100),[7]; 100 mg/kg,13.6%
same,Percent Weight Gain,[7]; 100 mg/kg,16.9%
same,"Percent Weight Gain, excluding one rat with unexplained severe weight loss","[7]; 100 mg/kg, excluding one rat",20.7%
Cl.N=C(N)Cc1ccc(Cl)cc1 [2-(4-chlorophenyl)acetamidine hydrochloride],antimicrobial activity of urine against Proteus species,[1],active
same,antimicrobial activity of urine against E. coli,[2]; [10],active
same,antimicrobial activity of urine against Pseudomonas aeruginosa,[3],active
Cl.NC(Cc1ccc(Br)cc1)=NO [2-(4-bromophenyl)acetamidoxime hydrochloride],antimicrobial activity of urine against Proteus species,[1],active
same,antimicrobial activity of urine against E. coli,[2]; [10],active
same,antimicrobial activity of urine against Pseudomonas aeruginosa,[3],active
"Cl.N=C(N)COc1ccc(Cl)cc1 [2-(4-chlorophenoxy)acetamidine hydrochloride, reference compound]",antimicrobial activity of urine against Proteus,[1],ineffective
same,antimicrobial activity of urine against E. coli,"[2]; 60 mg/kg, similar operations",ineffective
same,antimicrobial activity of urine against Pseudomonas,[3],ineffective
"Cl.NC(Cc1ccc([N+](=O)[O-])cc1)=NO [2-(4-nitrophenyl)acetamidoxime hydrochloride, reference compound]",antimicrobial activity of urine against Proteus,[1],not against the Pseudomonas or Proteus test organisms
same,antimicrobial activity of urine against E. coli,"[2]; 60 mg/kg, similar operations",effective against E. coli
same,antimicrobial activity of urine against Pseudomonas,[3],not against the Pseudomonas or Proteus test organisms
Cl.NC(Cc1ccc(Cl)cc1)=NO [2-(4-chlorophenyl)acetamidoxime hydrochloride],antimicrobial activity of urine against Proteus species,[1],active
same,antimicrobial activity of urine against E. coli,[2]; [10],active
same,antimicrobial activity of urine against Pseudomonas aeruginosa,[3],active
